The values below come from PMC6155831, “Promising Inhibitory Effects of Anthraquinones, Naphthopyrone, and Naphthalene Glycosides, from Cassia obtusifolia on α-Glucosidase and Human Protein Tyrosine Phosphatases 1B” (Molecules : A Journal of Synthetic Chemistry and Natural …, 2016).

Broadly, the IC50 is the point on the concentration scale where inhibition reaches its midpoint. One may read the Ki as a dissociation constant, usually derived from enzyme kinetics or from competition with a known ligand.

Each structure is given as a SMILES string.

The target in series [1] is T1, PTP1B (human recombinant) (Homo sapiens, UniProt P18031).
T1 construct: purchased Biomol International LP (Plymouth Meeting, PA, USA)
T1 sequence (P18031 1-435): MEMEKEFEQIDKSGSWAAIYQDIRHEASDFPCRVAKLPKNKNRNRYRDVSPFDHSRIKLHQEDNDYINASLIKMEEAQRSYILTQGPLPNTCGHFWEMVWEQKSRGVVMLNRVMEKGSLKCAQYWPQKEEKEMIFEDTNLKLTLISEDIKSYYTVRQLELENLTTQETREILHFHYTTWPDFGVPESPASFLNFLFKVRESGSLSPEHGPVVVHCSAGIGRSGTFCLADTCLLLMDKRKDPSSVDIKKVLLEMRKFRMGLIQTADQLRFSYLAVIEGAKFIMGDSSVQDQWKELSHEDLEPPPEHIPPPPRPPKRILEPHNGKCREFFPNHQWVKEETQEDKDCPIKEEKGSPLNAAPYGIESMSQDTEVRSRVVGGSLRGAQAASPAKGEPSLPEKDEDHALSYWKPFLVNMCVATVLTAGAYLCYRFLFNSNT
Put plainly: Protein tyrosine phosphatase 1B (PTP1B) inhibition assay with pNPP as substrate. The class given is biochemical. As to the method: The PTP1B inhibitory activities were evaluated using p-nitrophenyl phosphate as the substrate (pNPP) in a procedure reported by Cui et al.. Each well of a 96-well plate (final volume 100 μL) contained were 40 μL of PTP1B enzyme (0.5 units diluted with a PTP1B reaction buffer containing 50 mM citrate (pH 6.0), 0.1 M NaCl, 1 mM EDTA, and 1 mM dithiotheritol (DTT)), to which sample (test concentration up to 100 μg/mL) dissolved in 10% DMSO was or was not added. The plate was pre-incubated at 37 °C for 10 min, and then 50 μL of 2 mM pNPP in PTP1B reaction buffer was added. Following incubation at 37 °C for 30 min, the reaction was terminated with the addition of 10 M NaOH. The amounts of p-nitrophenyl produced after enzymatic dephosphorylation from pNPP was estimated by measuring the absorbance at 405 nm using microplate spectrophotometer (Molecular Devices). The non-enzymatic hydrolysis of 2 mM pNPP was corrected by measuring the increase in absorbance at 405 nm obtained in the absence of PTP1B enzyme. The percent inhibition (%) was obtained by the following equation: % inhibition = (Ac − As)/Ac × 100, where Ac is the absorbance of the control, and As is the absorbance of the sample.

The target in series [2] is Yeast α-glucosidase. Put plainly: α-Glucosidase inhibitory assay with pNPG as substrate. The class given is biochemical. The conditions noted are these: test concentration up to 400 µg/mL in 10% DMSO, triplicate. As to the method: Enzyme inhibition assays were carried out spectrophotometrically using a procedure reported by Li et al.. A 60 μL reaction mixture containing 20 μL of 100 mM phosphate buffer (pH 6.8), 20 μL of 2.5 mM pNPG, and 20 μL of sample (test concentration up to 400 μg/ml for compounds) dissolved in 10% DMSO was added to each well, followed by the addition of 20 μL of α-glucosidase (0.2 U/mL in 10 mM phosphate buffer (pH 6.8)). The plate was incubated at 37 °C for 15 min, and then 80 μL of 0.2 M sodium carbonate solution was added to stop the reaction. Right after that, the absorbance was recorded at 405 nm using a VERSA max microplate reader (Molecular Devices, Sunnyvale, CA, USA). The control contained the same reaction mixture with the same volume of phosphate buffer instead of sample solution. […] The percent inhibition (%) was obtained using the following equation: % Inhibition = (Ac − As)/Ac × 100, where Ac is the absorbance of the control, and As is the absorbance of the sample.

Series [3] deals with T1, PTP1B (human recombinant). Put plainly: Enzyme kinetic analysis of PTP1B inhibition (Dixon and Lineweaver-Burk plots). The class given is biochemical. As to the method: (§1) Since the Ki value represents the concentration needed to form an enzyme-inhibitor complex, this value plays an important role in the development of preventive and therapeutic agents.
(§2) In order to determine the inhibition mechanism, enzymatic inhibition at various concentrations of alaternin was evaluated by monitoring the effects of different concentrations of the substrates via Dixon plots (single reciprocal plot). Dixon plots of inhibition of PTP1B by alaternin were obtained in the presence of different concentrations of substrate: 1.0, 0.5, and 0.25 mM of pNPP. The test concentrations of alaternin in the PTP1B kinetic analysis were 0, 0.8, and 4.0 µM. Dixon plots of α-glucosidase inhibition by alaternin were performed in the presence of different concentrations of substrate: 2.5, 1.25, and 0.625 mM of pNPG. The test concentrations of alaternin used in the α-glucosidase kinetic analysis were 0.97, 1.95, and 3.90 µM. Both enzymatic procedures consisted of the same, aforementioned PTP1B and α-glucosidase assay methods. The inhibition constants (Ki) were determined by interpretation of the Dixon plots, where the value of the x-axis implies −Ki.

Series [4] has as its system Yeast α-glucosidase. Put plainly: Enzyme kinetic analysis of α-glucosidase inhibition (Dixon and Lineweaver-Burk plots). The class given is biochemical. Particulars: for Inhibition type α-Glucosidase: Dixon plot and Lineweaver-Burk plot. As to the method:
as §1, §2

For series [5], the system named is HepG2 cells. Put plainly: MTT cytotoxicity assay on HepG2 cells. The conditions noted are these: HepG2 cells, MTT, 24 h. As to the method: Before determining the insulin resistance of alaternin and emodin, the cytotoxicity of alaternin and emodin on HepG2 cells was first measured by the MTT assay. […] To investigate the ability of alaternin and emodin to increase glucose uptake, a 2-[N-(7-nitrobenz-2-oxa-1,3-diazol-4-yl) amino]-2-deoxy-D-glucose (2-NBDG) uptake assay was performed with insulin-resistant HepG2 cells.
Background: Tetrazolium dyes change colour on reduction, which living cells bring about.

The test system of series [6] is insulin-resistant HepG2 cells. As to the kind of experiment: 2-NBDG glucose uptake assay in insulin-resistant HepG2 cells. The class given is cell-based, human. The conditions noted are these: 12.5, 25, and 50 μM alaternin, 24 h, compared to the control. As to the method:
The HepG2 (human hepatocarcinoma) cell line was purchased from the American Type Culture Collection (HB-8065, Manassas, VA, USA). Cells were maintained in MEM containing 2.0 mM L-glutamine, 0.1 mM non-essential amino acids, 1.0 mM sodium pyruvate, and 10% FBS at 37 °C in a humidified atmosphere with 5% CO2. The medium was changed every 48 h. […] The establishment of an insulin-resistant HepG2 cell model and glucose uptake was performed according to the reported method, with slight modifications. Briefly, HepG2 cells were cultured in 96-well cluster plates. After reaching confluence, the cells were treated with 10^−6 mol/L insulin for 24 h to induce insulin resistance. […] After this incubation, the 2-NBDG uptake in insulin-resistant HepG2 cells was measured. The cells were incubated with 40 μM 2-NBDG for 30 min. To stop the response, cells were washed with ice-cold PBS and the fluorescence intensity of 2-NBDG was measured on a Synergy HT microplate reader (BioTek Instruments, Winooski, VT, USA) at 485 nm excitation and 528 nm emission. Six replicate wells were established and each experiment was repeated three times.

As for `Cc1cc2c(c(O)c1O)C(=O)c1c(O)cc(O)cc1C2=O` [Alaternin, 2-hydroxy emodin], the “PTP1B inhibitory activity compared with emodin” value in series [1] (fold higher than emodin) was “three-fold higher”. For the same compound, the 50% inhibitory concentration (IC50) in series [1] (pNPP substrate, test concentration up to 100 µg/mL in 10% DMSO, triplicate, read-out: PTP1B IC50 (Mean ± SEM) (converted)) was 4260 nM. In series [2], the “α-Glucosidase IC50 (Mean ± SEM)” value is given as 0.99 ± 0.02 µg/mL. Further, the “Inhibition type PTP1B” value in series [3] (Dixon plot and Lineweaver-Burk plot) was “Competitive”. In addition, the inhibitory constant (Ki) in series [3] (Dixon plot, pNPP 1.0, 0.5, 0.25 mM) is 1700 nM; in series [4] (Dixon plot, pNPG 2.5, 1.25, 0.625 mM) it was 660 nM. The “Inhibition type α-Glucosidase” value is reported as “mixed type” in series [4] and “Mixed” in series [4] (listed as alaternin). Also, the “concentration without any cytotoxicity” value in series [5] is “up to 50 µM”. Further, the “insulin-stimulated uptake of 2-NBDG” value in series [6] is reported as “significantly enhanced”.
